From article PMC10073126, “Levosimendan inhibits disulfide tau oligomerization and ameliorates tau pathology in Tau^P301L-BiFC mice” (Experimental & Molecular Medicine, 2023)

Columns and labels:
Tau-BiFC cells = assay: Flow cytometry analysis of tau-BiFC cells; format: cell-based, human; conditions: for P1: intact cell population out of total cells: 24 h; for Median BiFC fluorescence intensity of BiFC-responding cells: BiFC^ON control […] ± 62, basal 332 ± 110
Procedure: After 24 h, BiFC cells were collected and subjected to flow cytometry analysis using a BD FACSLyric^TM cytometer (BD Biosciences). A total of 50,000 events were acquired per sample. All samples were gated using the same gating tree and gate positions: side scatter area (SSC-A) vs. forward scatter area (FSC-A) for viable and singlet cell populations. BiFC fluorescence was excited by a 488 nm wave laser and collected through a 527/32 bandpass filter.

tau [1] = assay: Tau immunoblot of primary hippocampal neuron lysates; format: cell-based, rat; conditions: primary neurons, tauK18^P301L; for Level of disulfide-linked tau oligomers compared to basal: nonreducing SDS-PAGE, control 1.8 ± 0.3-fold
Procedure: (§1) Band intensity was quantified using ImageJ software (NIH). All data were normalized to β-actin.
(§2) Primary hippocampal neurons were isolated from Day 18 embryonic Sprague‒Dawley rat brains as described previously. The neurons were seeded at a density of 3.5 × 10^5 cells per well on a poly-D-lysine-coated 6-well plate and maintained in neurobasal medium at 37 °C in a humidified atmosphere of 5% CO2. The neurobasal medium contained 2% B27 supplement, 0.5 mM GlutaMAX, 100 units/mL penicillin, and 100 μg/mL streptomycin. Every 3 days, 50% of the medium was replaced with fresh neurobasal medium. At DIV10, neurons were incubated with MB, LMTM (3 µM), or levosimendan (10 µM) in the presence of tauK18^P301L (10 µg/mL) for 48 h.

[2] = tested on: primary hippocampal neurons; assay: NeuO staining, number of neurons and neurite lengths; format: cell-based; conditions: for Number of NeuO-stained live neurons / Neurite length: tauK18^P301L, 48 h; for Number of NeuO-stained live neurons: basal 1925 ± 66, control 943 ± 30; for Neurite length: control 142.8 ± 17.8 μm
Procedure: as §2
At DIV10, neurons grown on a 96-well plate were treated with MB, LMTM (3 µM), or levosimendan (10 µM) followed by tauK18^P301L activation. After 48 h, the neurons were stained with NueO (50 nM), a neuron-selective probe. NeuO fluorescence (λex = 460–490 nm and λem = 518–580 nm) images were acquired by using Operetta® (PerkinElmer). The number of neurons and total lengths of neurites were quantified by Harmony 3.1 software (PerkinElmer). Error bars represent the standard deviations (S.D.) of four replicate experiments.

tauK18 = target: T1, tauK18 (Homo sapiens, UniProt P10636); assay: In vitro tau aggregation assay (thioflavin S); format: biochemical; conditions: 5 days; for EC50: tauK18 with heparin and DTT, read-out: EC50, inhibition of tau aggregation (ThS)
T1 construct: under in vitro conditions using a purified tauK18 fragment; 6xHis; made in house; host or cells: E. coli BL21 (DE3)
Procedure: To evaluate the inhibitory effect of drugs on tau aggregation, tauK18 protein (0.5 mg/mL) was incubated with each drug at various concentrations in the presence of DTT (100 μM) and heparin (0.1 mg/mL) at 37 °C for 5 days with vigorous shaking (220 rpm). For the tau disaggregation assay, the preformed aggregation mixture of tauK18 was incubated with each drug at 37 °C for 4 days with vigorous shaking (220 rpm). On the final day of incubation, the level of β-sheet aggregates was evaluated by thioflavin S (ThS) assay. For the ThS assay, 5 μL of each mixture was transferred to a black 384-well plate with 45 μL of PBS containing 10 μM ThS. ThS fluorescence (λex = 430 nm, and λem = 500 nm) was measured by using a Flexstation2 spectrophotometer (Molecular Devices).

Tau^P301L-BiFC mice [3] = assay: Passive avoidance test; format: in vivo, mouse; conditions: 5 mg/kg i.p., three times a week, 4 months; compared with vehicle-treated TG
Procedure: (§3) For drug administration, LMTM and levosimendan were dissolved in PBS containing 40% polyethylene glycol (PEG; Sigma). Nine-month-old Tau^P301L-BiFC mice were intraperitoneally administered each drug for 4 months, three times a week, at a dosage of 5 mg/kg (n = 11 per group). Vehicle-treated Tau^P301L-BiFC mice and age-matched wild-type mice were used as control groups. Behavioral assessments were conducted as described below for one month from the end of drug administration. All mice were sacrificed at the age of 14 months for pathological analysis.
The passive avoidance test was performed as described previously[44] with the following modifications. Mice (n = 8 per group) were adapted in the passive avoidance chamber (Gemini) for 10 min and then returned to their home cages. The chamber is composed of a light compartment and a dark compartment separated by a connecting gate. The following day, the mice were placed in the light compartment, and the gate was opened after 30 s. When mice entered the dark compartment, the gate was closed, and an electrical foot shock (3 mA) was delivered for 2 s. The mice were left in the dark compartment for 30 s after the foot shock so that they associated the environment with the aversive stimulus. The mice were then returned to their home cages. […] The step-through latency, the time required for mice to enter the dark compartment, was measured up to 540 s.

Tau^P301L-BiFC mice [4] = assay: Tau immunoblot of RIPA-soluble and RIPA-insoluble brain lysates; format: in vivo, mouse; conditions: 5 mg/kg i.p., 4 months; for Level of disulfide-linked tau oligomers in the brain (nonreducing SDS-PAGE): RIPA-soluble brain lysates
Procedure: as §1, §3
Brains were weighed and suspended in RIPA lysis buffer (Sigma) containing protease and phosphatase inhibitor cocktails. Then, tissues were mechanically disrupted using a cordless mortar and pestle (Sigma) and incubated at 4 °C for 2 h with shaking. The homogenates were centrifuged at 20,000 × g at 4 °C for 20 min. The supernatants were collected as RIPA-soluble fractions and stored at −80 °C. To prepare RIPA-insoluble fractions, the remaining pellets were washed once with RIPA lysis buffer containing 1 M sucrose, resuspended in 2% SDS solution (1 mL per gram of tissue) and incubated at RT for 1 h. The mixtures were centrifuged at 20,000 × g for 1 min at RT. The supernatant was collected as RIPA-insoluble fractions and preserved at −80 °C.

tau [5] = target: T2, tau (Homo sapiens, UniProt P10636); assay: Tau immunoblot of tau-BiFC cell lysates (reducing and nonreducing SDS-PAGE); conditions: tauK18^P301L-activated tau-BiFC cells; for Level of disulfide-linked tau oligomers compared to basal: nonreducing SDS-PAGE, control 2.4 ± 0.4-fold
Procedure: For reducing SDS‒PAGE analysis, cell or brain lysates were mixed with 4x Laemmli buffer containing 10% β-mercaptoethanol (BME) and boiled at 97 °C for 5 min. For nonreducing SDS‒PAGE analysis, cell or brain lysates were mixed with 4x Laemmli buffer without BME. For immunoblot analysis, 10 μg of each lysate was separated on a 10% SDS–PAGE gel and transferred to a PVDF membrane. The levels of total tau and phosphorylated tau were detected by anti-tau antibodies against 2B11 (IBL), Tau5 (Abcam), pSer199 (Abcam), pSer396 (Abcam), and pThr205 (Abcam). […] Band intensity was quantified using ImageJ software (NIH). All data were normalized to β-actin.

tau [6] = target: T2, tau; assay: Tau-BiFC response in tau-BiFC cells (high-content imaging); format: cell-based; parameters: expressed in transfected cells; host or cells: HEK293 Tau-BiFC cells (G418-selected); conditions: 48 h of treatment
[7] = Tau-BiFC^ON by forskolin (30 μM)
[8] = Tau-BiFC^ON by tauK18^P301L (5 μg/mL)

T1 sequence (P10636 561-685 limits assumed): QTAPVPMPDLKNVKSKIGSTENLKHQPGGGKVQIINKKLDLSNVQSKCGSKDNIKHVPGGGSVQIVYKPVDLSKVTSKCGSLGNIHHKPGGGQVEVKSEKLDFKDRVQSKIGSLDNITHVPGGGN
T2 sequence (P10636 1-441 isoform P10636-8): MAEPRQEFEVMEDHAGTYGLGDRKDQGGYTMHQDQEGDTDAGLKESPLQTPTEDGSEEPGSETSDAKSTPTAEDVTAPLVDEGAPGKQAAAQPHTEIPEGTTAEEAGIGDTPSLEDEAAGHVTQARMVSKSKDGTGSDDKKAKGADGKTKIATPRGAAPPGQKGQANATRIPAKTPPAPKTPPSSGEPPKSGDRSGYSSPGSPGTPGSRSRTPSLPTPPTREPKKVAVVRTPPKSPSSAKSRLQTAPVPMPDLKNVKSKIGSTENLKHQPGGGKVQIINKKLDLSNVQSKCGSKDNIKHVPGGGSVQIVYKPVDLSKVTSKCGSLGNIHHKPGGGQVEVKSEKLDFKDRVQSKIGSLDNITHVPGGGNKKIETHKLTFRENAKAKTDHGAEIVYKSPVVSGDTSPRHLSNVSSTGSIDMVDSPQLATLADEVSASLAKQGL
T2 sequence (P10636 1-441 isoform P10636-8): as above

CN(C)c1ccc2c(c1)Sc1cc(N(C)C)ccc1N2.CS(=O)(=O)O.CS(=O)(=O)O [LMTM, leucomethylene blue mesylate]
P1: intact cell population out of total cells (Tau-BiFC cells; drug 5 μM with tauK18^P301L): 14.5% | Median BiFC fluorescence intensity of BiFC-responding cells (Tau-BiFC cells; drug 5 μM with tauK18^P301L): 596 ± 57 | Level of disulfide-linked tau oligomers compared to basal (tau [1]; 3 μM): 2.4 ± 0.3 fold | Number of NeuO-stained live neurons ([2]; 3 μM): 1182 ± 76 neurons | Neurite length ([2]; 3 μM): 151.1 ± 24.4 μm | Neuronal cell death in primary hippocampal neurons ([2]; higher concentrations over 10 μM (data not shown)): severe neuronal cell death | EC50 (tauK18): 1.9 ± 0.2 µM | Latency of entering the dark compartment (Tau^P301L-BiFC mice [3]): did not show significant improvement | Level of disulfide-linked tau oligomers in the brain (nonreducing SDS-PAGE) (Tau^P301L-BiFC mice [4]): did not increase or decrease | Fold change, RIPA-insoluble tau (IB: Tau5) (Tau^P301L-BiFC mice [4]; vehicle 1.00): 0.7 ± 0.1 fold | Fold change, RIPA-soluble tau phosphorylation at S199 (Tau^P301L-BiFC mice [4]; vehicle 1.00): 0.6 ± 0.1 fold | Fold change, RIPA-soluble tau phosphorylation at S396 (Tau^P301L-BiFC mice [4]; vehicle 1.00): 0.8 ± 0.2 fold | Level of disulfide-linked tau oligomers compared to basal (tau [5]; 5 μM): 1.9 ± 0.4 fold | Level of pS199-positive monomers compared to basal (tau [5]; 5 μM, reducing gel): 0.3 ± 0.0 fold | Level of pS199-positive oligomers compared to basal (tau [5]; 5 μM, reducing gel): 0.4 ± 0.1 fold | Level of pT205-positive monomers compared to basal (tau [5]; 5 μM, reducing gel): 0.2 ± 0.2 fold | Level of pT205-positive oligomers compared to basal (tau [5]; 5 μM, reducing gel): 0.6 ± 0.2 fold | EC50 (tau [6]; [7]): 2.2 ± 0.2 µM | EC50 (tau [6]; [8]): 2.7 ± 0.2 µM

C[C@@H]1CC(=O)NN=C1c1ccc(NN=C(C#N)C#N)cc1 [Levosimendan]
P1: intact cell population out of total cells (Tau-BiFC cells; drug 15 μM with tauK18^P301L): 69.0% | Median BiFC fluorescence intensity of BiFC-responding cells (Tau-BiFC cells; drug 15 μM with tauK18^P301L): 249 ± 59 | Level of disulfide-linked tau oligomers compared to basal (tau [1]; 10 μM): 0.5 ± 0.1 fold | Total tau level compared to basal (tau [1]; 10 μM, 48 h, control 1.5 ± 0.1-fold): 1.0 ± 0.1 fold | Tau phosphorylation at S199 compared to basal (tau [1]; 10 μM, 48 h, control 1.7 ± 0.1-fold): 0.9 ± 0.1 fold | Tau phosphorylation at S396 compared to basal (tau [1]; 10 μM, 48 h, control 2.0 ± 0.3-fold): 0.9 ± 0.1 fold | Number of NeuO-stained live neurons ([2]; 10 μM): 1650 ± 114 neurons | Neurite length ([2]; 10 μM): 346.8 ± 20.7 μm | Inhibition of tau aggregation in vitro (ThS response) (tauK18; heparin-induced): strong anti-tau aggregation activity | EC50 (tauK18): 2.6 ± 0.1 µM | Latency of entering the dark compartment (Tau^P301L-BiFC mice [3]): delayed latency or not entering the chamber | Level of disulfide-linked tau oligomers in the brain (nonreducing SDS-PAGE) (Tau^P301L-BiFC mice [4]): significantly decreased the high-molecular-weight oligomers | Fold change, RIPA-insoluble tau (IB: Tau5) (Tau^P301L-BiFC mice [4]; vehicle 1.00): 0.5 ± 0.2 fold | Fold change, RIPA-soluble tau phosphorylation at S199 (Tau^P301L-BiFC mice [4]; vehicle 1.00): 0.5 ± 0.0 fold | Fold change, RIPA-soluble tau phosphorylation at S396 (Tau^P301L-BiFC mice [4]; vehicle 1.00): 0.5 ± 0.1 fold | Fold change, RIPA-soluble total tau (IB: Tau5) (Tau^P301L-BiFC mice [4]; vehicle 1.00): decreased slightly | Level of disulfide-linked tau oligomers compared to basal (tau [5]; 45 μM): 0.8 ± 0.2 fold | Level of tau phosphorylation at T205 compared to basal (tau [5]; 45 μM, control 1.9 ± 0.2-fold): 1.0 ± 0.1 fold | Total tau level compared to basal (tau [5]; control 2.0 ± 0.1-fold): 1.0 ± 0.2 fold | EC50 (tau [6]; [7]): 1.9 ± 0.1 µM | EC50 (tau [6]; [8]): 2.2 ± 0.1 µM
